Measured values as given in US20140005163A1 (NOVARTIS AG, priority 2010, published 2014).
Converted amounts (≈) assume the structure as drawn.

Legend:
PI3K alpha = target: T1, PI3K alpha (Homo sapiens, UniProt P42336); assay: PI3K alpha kinase assay (Kinase-Glo luminescence); type: biochemical
T1 construct: p85(iSH2) fusion partner (see partner chain) (N); His tag (C); made in house; host or cells: baculovirus; Tn5 (Trichoplusia ni) or TiniPro insect cells
Outline: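 Luminescent ATP-depletion assay (Kinase-Glo) with 10 nM PI3Kα and 10 μg/mL phosphatidylinositol as lipid substrate at 1 μM ATP. Incubation lasts 60 min at room temperature.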

[1] = tested on: PKB Ser473 phosphorylation in Rat1-myr-HA-p110 alpha cells; assay: Reverse protein array assay, PKB Ser473 phosphorylation in Rat1-myr-p110 alpha cells; type: cell-based; details: 0.5 h, pAkt Ser473, 30 minutes compound incubation, read-out: p-PKB IC50
Outline: (§1)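 Measured: PKB Ser473 phosphorylation by reverse protein array in Rat1 cells expressing myr-HA-p110 alpha, beta or delta, after 30 min compound treatment at 37 °C with 0.2% DMSO vehicle.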

[2] = tested on: PKB Ser473 phosphorylation in Rat1-myr-HA-p110 beta cells; assay: Reverse protein array assay, PKB Ser473 phosphorylation in Rat1-myr-p110 beta cells; type: cell-based; details: 0.5 h, pAkt Ser473, 30 minutes incubation, read-out: p-PKB IC50
Outline: as §1

[3] = tested on: PKB Ser473 phosphorylation in Rat1-myr-HA-p110 delta cells; assay: Reverse protein array assay, PKB Ser473 phosphorylation in Rat1-myr-p110 delta cells; type: cell-based; details: read-out: p-PKB IC50
Outline: as §1

PI3K gamma = target: T2, PI3K gamma (Homo sapiens, UniProt P48736); assay: PI3K gamma kinase assay (Kinase-Glo luminescence); type: biochemical
T2 construct: His tag (C); made in house; host or cells: baculovirus (pVL1393); Tn5 or TiniPro insect cells; construct from Roger Williams lab, MRC LMB
Protocol: In a more preferred assay, the kinase reaction is performed in a final volume of 10 μL per well of a low volume non binding CORNING, 384 well black plate (Cat. No. #3676). The final concentrations of ATP and phosphatidyl inositol (PI) in the assay are 1 μM and 10 μg/mL respectively. The reaction is started by the addition of ATP.
The components of the assay are added per well as follows:
[…] in 90% DMSO per well, in columns 1-20, 8 concentrations (1/3 and 1/3.33 serial dilution step) in single. • Low control: […] of 90% DMSO in half the wells of columns 23-24 (0.45% in final). • High control: […] of reference compound (e.g. compound of Example 7 in WO 2006/122806) in the other half of columns 23-24 (2.5 μM in final). • Standard: […] of reference compound as just mentioned diluted as the test compounds in columns 21-22 • 20 mL ‘buffer’ are prepared per assay: • 200 μL of 1M TRIS HCl pH7.5 (10 mM in final) • 60 μL of 1M MgCl2 (3 mM in final) • 500 μL of 2M NaCl (50 mM in final) • 100 μL of 10% CHAPS (0.05% in final) • 200 μL of 100 mM DTT (1 mM in final) • 18.94 mL of nanopure water • 10 mL ‘PI’ are prepared per assay: • 200 μL of 1 mg/ml L-alpha-Phosphatidylinositol (Liver Bovine, Avanti Polar Lipids Cat. No. 840042C MW=909.12) prepared in 3% OctylGlucoside (10 μg/ml in final) • 9.8 mL of ‘buffer’ • 10 mL ‘ATP’ are prepared per assay: • 6.7 μL of 3 mM stock of ATP giving a final concentration of 1 μM per well • 10 mL of ‘buffer’ • 2.5 mL of each PI3K construct are prepared per assay in ‘PI’ with the following final concentration: • 10 nM PI3K alfa EMV B1075 • 25 nM beta EMV BV949 • 10 nM delta EMV BV1060 • 150 nM gamma EMV BV950 • 5 μL of ‘PI/PI3K’ are added per well. • 5 μl ‘ATP’ are added per well to start the reaction. • The plates are then incubated at room temperature for 60 minutes (alfa, beta, delta) or 120 minutes (gamma). • The reaction is terminated by the addition of 10 μL Kinase-Glo (Promega Cat. No. #6714). • The assay plates are read after 10 minutes in Synergy 2 reader (BioTek, Vermont USA) with an integration time of 100 milliseconds and sensitivity set to 191. • Output: The High control is around 60'000 counts and the Low control is 30'000 or lower • This luminescence assay gives a useful Z′ ratio between 0.4 and 0.7
IC50 is determined by a four parameter curve fitting routine that comes along with “excel fit”. […] Alternatively, IC50 values are calculated using idbsXLfit model 204, which is a 4 parameter logistic model.

PI3K delta = target: T3, PI3K delta (Homo sapiens, UniProt O00329); assay: PI3K delta kinase assay (Kinase-Glo luminescence); type: biochemical
T3 construct: for the full-length p110-d subunit are generated and fused by overlapping PCR; p85(iSH2) fusion partner (see partner chain) (N); His tag (C); made in house; host or cells: baculovirus; Tn5 (Trichoplusia ni) or TiniPro insect cells
Outline: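 Inhibition is derived from luminescent detection of unconsumed ATP. The reaction runs for one hour at ambient temperature and contains the δ isoform fusion protein, phosphatidylinositol substrate and low (1 μM) ATP. Eight compound concentrations are tested in single, and a 4-parameter logistic model is used to calculate IC50.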

Solubility at pH 6.8 = type: physicochemical; details: pH 6.8, aqueous buffer, thermodynamic from solid; read-out: solubility
Outline: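 Solubility was measured at pH 6.8 following the cited Zhou et al. (2007) procedure.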

PI3K beta = target: T4, PI3K beta (Homo sapiens, UniProt P42338); assay: PI3K beta kinase assay (Kinase-Glo luminescence); type: biochemical
T4 construct: for the full-length p110-b subunit are generated and fused by overlapping PCR; p85(iSH2) fusion partner (see partner chain) (N); His tag (C); made in house; host or cells: baculovirus; Tn5 (Trichoplusia ni) or TiniPro insect cells
Outline: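 Enzyme: BV949 p85(iSH2)-Gly linker-p110β FL-His, 25 nM. Substrate: PI 10 μg/mL. ATP: 1 μM, added to start. Buffer: Tris pH 7.5 10 mM, MgCl2 3 mM, NaCl 50 mM, CHAPS 0.05%, DTT 1 mM. RT, 60 min. Readout: Kinase-Glo. IC50 by 4-parameter fit.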

mTOR = target: T5, mTOR (Homo sapiens, UniProt P42345); assay: Biochemical assay for m-TOR by TR-FRET; details: 8 μM ATP, 400 nM GFP-4EBP1, 0.5 nM mTOR
T5 construct: purchased Invitrogen Corporation (Carlsbad/CA, USA) PV4753
Outline: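 Steps: ATP (8 μM final) plus GFP-4EBP1 (400 nM final) combined with mTOR (0.5 nM final), incubated at rt; buffer HEPES pH 7.5 with 10 mM MnCl2, NaCl, EGTA, DTT. Then stopped with EDTA/Tb3+-anti-p4EBP1 pT46 Ab (0.5 nM). Plates read after 15 min.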

T2 sequence (P48736 144-1102 limits assumed): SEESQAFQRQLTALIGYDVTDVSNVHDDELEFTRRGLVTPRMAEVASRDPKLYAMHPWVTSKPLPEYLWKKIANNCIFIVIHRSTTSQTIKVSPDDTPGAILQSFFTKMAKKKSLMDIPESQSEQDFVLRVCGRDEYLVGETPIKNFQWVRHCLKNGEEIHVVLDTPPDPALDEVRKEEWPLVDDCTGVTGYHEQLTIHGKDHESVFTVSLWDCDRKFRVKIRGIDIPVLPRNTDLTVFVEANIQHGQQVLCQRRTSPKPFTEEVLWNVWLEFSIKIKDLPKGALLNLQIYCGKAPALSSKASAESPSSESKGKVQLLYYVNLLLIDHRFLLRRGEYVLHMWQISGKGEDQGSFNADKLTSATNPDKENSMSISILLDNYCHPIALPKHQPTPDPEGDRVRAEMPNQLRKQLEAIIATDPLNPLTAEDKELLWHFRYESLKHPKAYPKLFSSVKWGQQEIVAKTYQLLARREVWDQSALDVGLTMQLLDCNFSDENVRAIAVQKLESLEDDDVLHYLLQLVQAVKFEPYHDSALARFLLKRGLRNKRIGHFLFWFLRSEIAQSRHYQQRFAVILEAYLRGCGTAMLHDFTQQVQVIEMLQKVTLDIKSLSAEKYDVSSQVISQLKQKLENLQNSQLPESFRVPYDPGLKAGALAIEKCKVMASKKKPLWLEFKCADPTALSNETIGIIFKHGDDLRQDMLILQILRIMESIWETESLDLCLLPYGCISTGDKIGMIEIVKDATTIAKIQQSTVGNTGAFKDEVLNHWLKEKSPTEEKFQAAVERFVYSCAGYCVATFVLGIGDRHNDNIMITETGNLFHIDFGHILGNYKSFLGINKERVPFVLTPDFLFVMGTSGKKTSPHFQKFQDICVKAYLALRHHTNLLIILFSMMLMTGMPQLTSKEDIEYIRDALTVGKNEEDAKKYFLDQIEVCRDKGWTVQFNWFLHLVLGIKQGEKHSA
T1 sequence (P42336 with tags, fused parts or gaps limits assumed): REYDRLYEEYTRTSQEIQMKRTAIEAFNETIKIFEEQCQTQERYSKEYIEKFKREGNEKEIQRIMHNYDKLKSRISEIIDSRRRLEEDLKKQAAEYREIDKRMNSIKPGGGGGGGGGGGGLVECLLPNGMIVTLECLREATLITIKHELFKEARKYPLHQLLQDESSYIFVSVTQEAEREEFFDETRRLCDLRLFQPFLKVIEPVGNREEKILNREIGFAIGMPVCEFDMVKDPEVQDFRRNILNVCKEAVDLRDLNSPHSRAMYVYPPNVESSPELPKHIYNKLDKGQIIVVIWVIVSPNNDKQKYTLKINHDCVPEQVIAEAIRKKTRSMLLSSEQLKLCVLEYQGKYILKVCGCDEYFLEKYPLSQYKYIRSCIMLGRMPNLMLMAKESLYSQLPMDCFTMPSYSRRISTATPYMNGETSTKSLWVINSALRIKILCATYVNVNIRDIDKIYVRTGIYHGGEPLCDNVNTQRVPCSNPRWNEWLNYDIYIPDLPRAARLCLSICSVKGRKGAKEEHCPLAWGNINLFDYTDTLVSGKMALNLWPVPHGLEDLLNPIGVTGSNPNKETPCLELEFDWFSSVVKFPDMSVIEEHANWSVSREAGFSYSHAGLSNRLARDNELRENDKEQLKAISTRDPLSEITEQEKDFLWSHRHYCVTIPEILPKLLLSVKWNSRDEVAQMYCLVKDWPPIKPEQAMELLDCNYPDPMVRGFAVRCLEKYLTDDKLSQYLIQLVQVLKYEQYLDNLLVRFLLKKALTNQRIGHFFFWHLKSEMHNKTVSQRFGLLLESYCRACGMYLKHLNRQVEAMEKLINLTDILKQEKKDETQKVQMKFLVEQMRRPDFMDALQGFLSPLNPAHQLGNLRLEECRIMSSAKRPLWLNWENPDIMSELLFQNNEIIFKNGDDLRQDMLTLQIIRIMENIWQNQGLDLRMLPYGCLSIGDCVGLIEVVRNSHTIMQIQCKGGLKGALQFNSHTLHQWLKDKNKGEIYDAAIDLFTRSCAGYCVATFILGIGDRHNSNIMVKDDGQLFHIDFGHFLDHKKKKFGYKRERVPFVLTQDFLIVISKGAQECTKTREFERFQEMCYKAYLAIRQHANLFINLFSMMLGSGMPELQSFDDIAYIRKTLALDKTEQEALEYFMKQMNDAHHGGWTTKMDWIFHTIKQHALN
T3 sequence (O00329 with tags, fused parts or gaps limits assumed): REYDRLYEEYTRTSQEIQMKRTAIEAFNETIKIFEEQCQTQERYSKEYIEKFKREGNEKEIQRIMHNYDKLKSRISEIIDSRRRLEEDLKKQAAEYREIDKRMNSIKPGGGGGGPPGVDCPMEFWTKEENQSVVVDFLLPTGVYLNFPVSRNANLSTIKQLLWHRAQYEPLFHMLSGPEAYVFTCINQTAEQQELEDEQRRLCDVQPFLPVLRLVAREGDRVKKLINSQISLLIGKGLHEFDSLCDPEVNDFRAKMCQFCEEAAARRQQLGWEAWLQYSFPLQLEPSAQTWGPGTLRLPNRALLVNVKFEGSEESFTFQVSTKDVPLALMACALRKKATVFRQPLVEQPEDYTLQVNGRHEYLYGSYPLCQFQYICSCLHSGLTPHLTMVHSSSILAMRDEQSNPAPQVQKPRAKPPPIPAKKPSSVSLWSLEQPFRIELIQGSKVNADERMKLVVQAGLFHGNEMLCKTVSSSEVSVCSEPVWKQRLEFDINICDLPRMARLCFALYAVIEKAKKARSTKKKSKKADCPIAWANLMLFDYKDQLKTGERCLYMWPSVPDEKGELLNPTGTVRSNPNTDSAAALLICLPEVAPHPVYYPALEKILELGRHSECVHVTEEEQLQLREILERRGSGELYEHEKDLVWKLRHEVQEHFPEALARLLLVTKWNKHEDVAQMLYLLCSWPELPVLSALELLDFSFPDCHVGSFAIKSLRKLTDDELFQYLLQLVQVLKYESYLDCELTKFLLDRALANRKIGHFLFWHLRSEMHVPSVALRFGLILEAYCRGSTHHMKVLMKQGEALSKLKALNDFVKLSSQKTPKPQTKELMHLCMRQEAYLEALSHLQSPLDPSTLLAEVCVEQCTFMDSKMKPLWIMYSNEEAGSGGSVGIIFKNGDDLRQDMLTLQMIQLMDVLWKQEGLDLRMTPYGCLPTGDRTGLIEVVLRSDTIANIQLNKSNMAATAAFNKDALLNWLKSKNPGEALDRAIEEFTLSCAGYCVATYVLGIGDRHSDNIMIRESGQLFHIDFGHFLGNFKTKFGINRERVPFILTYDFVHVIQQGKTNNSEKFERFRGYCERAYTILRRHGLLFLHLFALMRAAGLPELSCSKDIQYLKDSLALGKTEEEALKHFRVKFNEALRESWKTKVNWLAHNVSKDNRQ
T4 sequence (P42338 with tags, fused parts or gaps limits assumed): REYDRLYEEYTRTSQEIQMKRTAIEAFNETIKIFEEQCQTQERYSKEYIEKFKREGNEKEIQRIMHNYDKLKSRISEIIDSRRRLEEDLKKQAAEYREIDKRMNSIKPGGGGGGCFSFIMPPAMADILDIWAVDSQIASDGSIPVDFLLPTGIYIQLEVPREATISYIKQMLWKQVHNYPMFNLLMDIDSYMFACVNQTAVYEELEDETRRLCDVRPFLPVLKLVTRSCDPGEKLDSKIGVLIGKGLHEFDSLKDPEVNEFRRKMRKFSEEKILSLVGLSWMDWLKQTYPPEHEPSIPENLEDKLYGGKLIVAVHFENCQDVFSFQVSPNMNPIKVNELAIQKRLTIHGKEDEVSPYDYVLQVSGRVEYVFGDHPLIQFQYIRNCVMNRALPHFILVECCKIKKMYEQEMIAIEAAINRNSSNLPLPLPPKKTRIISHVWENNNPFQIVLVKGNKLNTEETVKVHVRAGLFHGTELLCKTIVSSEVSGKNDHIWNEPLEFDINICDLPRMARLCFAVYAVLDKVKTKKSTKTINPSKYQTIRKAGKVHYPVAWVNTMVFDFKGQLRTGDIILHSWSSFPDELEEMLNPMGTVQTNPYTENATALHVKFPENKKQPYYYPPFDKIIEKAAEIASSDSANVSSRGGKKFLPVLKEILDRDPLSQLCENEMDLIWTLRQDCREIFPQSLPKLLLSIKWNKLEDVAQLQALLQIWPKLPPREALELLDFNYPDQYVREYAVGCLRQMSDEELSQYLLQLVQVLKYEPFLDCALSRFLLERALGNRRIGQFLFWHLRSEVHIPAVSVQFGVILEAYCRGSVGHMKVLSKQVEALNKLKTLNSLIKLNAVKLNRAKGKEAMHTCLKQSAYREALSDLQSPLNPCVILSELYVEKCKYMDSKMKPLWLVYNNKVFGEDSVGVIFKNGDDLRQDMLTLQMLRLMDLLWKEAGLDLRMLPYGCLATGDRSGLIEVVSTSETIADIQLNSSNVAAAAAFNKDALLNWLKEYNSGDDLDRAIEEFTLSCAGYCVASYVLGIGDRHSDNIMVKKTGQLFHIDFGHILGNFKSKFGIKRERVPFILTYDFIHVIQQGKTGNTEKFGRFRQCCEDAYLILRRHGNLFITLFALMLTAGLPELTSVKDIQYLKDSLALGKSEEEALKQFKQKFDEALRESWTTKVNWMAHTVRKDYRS

COc1ccc(-c2ccc3ncc4c(c3c2)n(-c2c(C)cnn2C)c(=O)n4C)cc1OC [Example 1.7, 8-(3,4-Dimethoxy-phenyl)-1-(2,4-dimethyl-2H-pyrazol-3-yl)-3-methyl-1,3-dihydro-imidazo[4,5-c]quinolin-2-one] gave an IC50 (PI3K alpha) of 59 nM, an IC50 [1] of 82 nM and an IC50 [2] of 147 nM. For the same compound, the IC50 [3] was 249 nM, the IC50 (PI3K gamma) was 120 nM and the IC50 (PI3K delta) was 169 nM. The solubility (Solubility at pH 6.8) was 6 µg/mL (≈ 14 µM) and the IC50 (PI3K beta) was 152 nM.
COc1ccc(-c2ccc3ncc4c(c3c2)n(-c2c(C)cnn2C)c(=O)n4C)cn1 [Example 2.1, 1-(2,4-Dimethyl-2H-pyrazol-3-yl)-8-(6-methoxy-pyridin-3-yl)-3-methyl-1,3-dihydro-imidazo[4,5-c]quinolin-2-one] showed an IC50 (PI3K alpha) of 94 nM, an IC50 [1] of 552 nM and an IC50 [2] of 795 nM. The IC50 [3] was 946 nM, the IC50 (PI3K gamma) was 140 nM and the IC50 (PI3K delta) was 432 nM. It also gave a solubility (Solubility at pH 6.8) of 8 µg/mL (≈ 20 µM) and an IC50 (PI3K beta) of 241 nM.
Cc1nn(C)c(C)c1-n1c(=O)n(C)c2cnc3ccc(-c4cccnc4)cc3c21 [Example 10.1, 3-Methyl-8-pyridin-3-yl-1-(1,3,5-trimethyl-1H-pyrazol-4-yl)-1,3-dihydro-imidazo[4,5-c]quinolin-2-one] showed an IC50 (PI3K alpha) of 136 nM, an IC50 [1] of 594 nM and an IC50 [2] of 937 nM. For the same compound, the IC50 [3] was 1630 nM, the IC50 (PI3K gamma) was 273 nM and the IC50 (PI3K delta) was 292 nM. For the same compound, the solubility (Solubility at pH 6.8) was > 384 µg/mL and the IC50 (PI3K beta) was 799 nM.
Compound Cc1nn(C)c(C)c1-n1c(=O)n(C)c2cnc3ccc(-c4ccccc4)cc3c21 [Example 37.2, 3-Methyl-8-phenyl-1-(1,3,5-trimethyl-1H-pyrazol-4-yl)-1,3-dihydro-imidazo[4,5-c]quinolin-2-one] has an IC50 (PI3K alpha) of 250 nM, an IC50 (PI3K gamma) of 335 nM and an IC50 (PI3K delta) of 465 nM. It also gave a solubility (Solubility at pH 6.8) of 355 µg/mL (≈ 926 µM).
Cc1nn(C)c(C)c1-n1c(=O)n(C)c2cnc3ccc(-c4cccc(S(=O)(=O)N(C)C)c4)cc3c21 [Example 53.2, N,N-Dimethyl-3-[3-methyl-2-oxo-1-(1,3,5-trimethyl-1H-pyrazol-4-yl)-2,3-dihydro-1H-imidazo[4,5-c]quinolin-8-yl]-benzenesulfonamide] showed an IC50 (PI3K alpha) of 94 nM, an IC50 [1] of 375 nM and an IC50 [2] of 634 nM. For the same compound, the IC50 [3] was 672 nM, the IC50 (PI3K gamma) was 183 nM and the IC50 (PI3K delta) was 93 nM. It also gave a solubility (Solubility at pH 6.8) of 40 µg/mL (≈ 81.5 µM) and an IC50 (PI3K beta) of 843 nM.
Work on CCOc1cncc(-c2ccc3ncc4c(c3c2)n(-c2c(C)nn(C)c2C)c(=O)n4C)c1 [Example 56.3, 8-(5-Ethoxy-pyridin-3-yl)-3-methyl-1-(1,3,5-trimethyl-1H-pyrazol-4-yl)-1,3-dihydro-imidazo[4,5-c]quinolin-2-one] yielded an IC50 (PI3K alpha) of 82 nM, an IC50 [1] of 304 nM and an IC50 (PI3K gamma) of 257 nM. The IC50 (PI3K delta) was 129 nM, the solubility (Solubility at pH 6.8) was 300 µg/mL (≈ 700 µM) and the IC50 (PI3K beta) was 228 nM.
With Cc1nn(C)cc1-n1c(=O)n(C)c2cnc3ccc(-c4cnccn4)cc3c21 [Example 115, 1-(1,3-Dimethyl-1H-pyrazol-4-yl)-3-methyl-8-pyrazin-2-yl-1,3-dihydro-imidazo[4,5-c]quinolin-2-one] the IC50 (PI3K alpha) was 148 nM, the IC50 [1] was 208 nM and the IC50 [2] was 308 nM. The IC50 (PI3K gamma) was 851 nM, the IC50 (PI3K delta) was 800 nM and the solubility (Solubility at pH 6.8) was 128 µg/mL (≈ 345 µM).
In the case of Cc1nn(C)cc1-n1c(=O)n(C)c2cnc3ccc(-c4ccc(-c5nn[nH]n5)nc4)cc3c21 [Example 123, 1-(1,3-Dimethyl-1H-pyrazol-4-yl)-3-methyl-8-[6-(2H-tetrazol-5-yl)-pyridin-3-yl]-1,3-dihydro-imidazo[4,5-c]quinolin-2-one], the IC50 (PI3K alpha) is reported as 446 nM, the IC50 (PI3K gamma) is reported as 173 nM and the IC50 (mTOR) is reported as 232 nM. The solubility (Solubility at pH 6.8) was 65 µg/mL (≈ 148 µM).
